Reference: the SangsterLogP compilation
Values belong to the molecule of their own block, whether it stands above or below them.

SMILES: CCOCCOC(=O)[C@H](C)n1cnc2sc3c(c2c1=O)CC[C@H](C)C3
logD (pH 10.0): 4.25

SMILES: O=C1C(=O)N(OCc2ccc(Br)cc2)[C@H]2CCCC[C@@H]2N1OCc1ccc(Br)cc1
logD (pH 7.3): 5.49

SMILES: CCn1c(SCC(=O)NC(C)(C)C)nnc1C1CCCCC1
logD (pH 10.0): 3.2

SMILES: CC(C)[C@@H](Sc1nnc(C(F)(F)F)n1C)C(=O)NC(N)=O
logD (pH 7.3): 2.12

SMILES: CC1(C)OC[C@H](COc2c(F)c(N3CCOCC3)nc(F)c2Cl)O1
logD (pH 5.0): 4.07

SMILES: COC(=O)CSc1nc(NCC(C)C)nc(N2CCOCC2)n1
logD (pH 8.0): 3.75

SMILES: C[C@H]1CCc2nc(NC(=O)c3ccc(F)c(F)c3)sc2C1
logD (pH 6.5): 4.79

SMILES: CN(C)C(=O)[C@H]1OC(C)(C)O[C@@H]1C(=O)N(C)C
logD (pH 5.0): 1.49

SMILES: C[C@@H]1CCCCN1C(=O)CCCCC(=O)N1CCCC[C@H]1C
logD (pH 5.0): 3.42

SMILES: CC(C)OC(=O)C1=C(CSc2nc3c(cc2C#N)CCCCC3)OC(N)=C(C#N)[C@@H]1c1ccncc1
logD (pH 10.0): 5.43

SMILES: O=C1[C@H]2OC[C@H](O2)[C@H]2[C@@H]1[C@@H]1C=C[C@H]2C1
logD (pH 5.0): 1.48

SMILES: CCOc1ccc(Br)cc1[C@H]1C2=C(CC(C)(C)CC2=O)Nc2ncnn21
logD (pH 7.3): 3.85

SMILES: C[C@H]1CN(C(=O)c2csc3c2CCCC3)/C(=N/c2ccc(Cl)cc2)S1
logD (pH 5.0): 5.53

SMILES: Cc1cc(C)nc(-n2nc(C)c3c2NC2=CC(C)(C)CC(=O)[C@H]2[C@@H]3c2ccco2)n1
logD (pH 7.3): 4.34

SMILES: C[C@H]1CCCN(C(=O)COC(=O)COc2cc(Cl)c(Cl)cc2Cl)C1
logD (pH 6.5): 4.97

SMILES: C=CCn1/c(=N/C(=O)c2cc(OC)c(OC)c(OC)c2)sc2cccc(OC)c21
logD (pH 10.5): 5.14

SMILES: CCOC(=O)C1=C(N)N2C(=O)[C@H](C)SC2=C(C(=O)OCC)[C@H]1c1ccc(Cl)cc1Cl
logD (pH 10.0): 5.49

SMILES: COc1ccc(C(=O)/C=C/C=C(Cl)Cl)cc1
logD (pH 5.0): 4.4

SMILES: Cc1sc2ncn(CC(=O)N[C@@H]3CCC[C@@H](C)[C@H]3C)c(=O)c2c1C
logD (pH 8.0): 4.34

SMILES: COc1ccc(N(C(=O)C2CCCCC2)S(=O)(=O)c2ccc3c4c(cccc24)C(=O)N3C)cc1
logD (pH 5.0): 5.26

Further lines, results first:

logD (pH 10.0): 5.24
SMILES: COc1ccc(/N=C/c2ccc(/C=N/c3ccc(OC)cc3)cc2)cc1

logD (pH 5.0): 5.29
SMILES: C[C@@H]1C=CC[C@@H]2C(=O)N(c3cccc(C(=O)OCC(=O)c4ccc(Br)cc4)c3)C(=O)[C@H]12

logD (pH 5.0): 5.55
SMILES: CCC(=O)N1c2ccccc2NC2=C(C(=O)CC(C)(C)C2)[C@H]1c1ccc(-c2ccc([N+](=O)[O-])cc2Cl)o1

logD (pH 10.0): 2.95
SMILES: O=[N+]([O-])c1ccccc1/C=N/c1ccc(/N=C/c2ccccc2[N+](=O)[O-])cc1

logD (pH 10.0): 4.45
SMILES: COc1ccc([C@@H]2C(C(=O)OCCOC(C)C)=C(C)NC3=C2C(=O)C[C@H](c2cccs2)C3)cc1OC

logD (pH 10.0): 4.3
SMILES: CC(=O)c1ccc(N2CCN(C(=O)/C=C/c3ccc(C)o3)CC2)cc1

logD (pH 10.5): 5.31
SMILES: CN(c1ccccc1)S(=O)(=O)c1ccc(C(=O)N2CCN(c3ccccc3Cl)CC2)cc1

logD (pH 10.0): 4.22
SMILES: COC(=O)C1=C(C)N=C(C)C(C(=O)OC)[C@@H]1c1cccc(Cl)c1 (some centres undefined)

logD (pH 5.0): 5.63
SMILES: Cc1ccccc1N[C@@H](c1ccccc1F)P(=O)(OC(C)C)OC(C)C

logD (pH 10.5): 5.45
SMILES: COc1ccc([C@H]2C(C#N)=C(N)N(c3ccccc3C(F)(F)F)C3=C2C(=O)CCC3)cc1CSc1ccccn1

logD (pH 10.5): 5.4
SMILES: N#C/C(=C/c1ccc2c(c1)OCO2)C(=O)N=C1c2ccccc2CN1c1cccc([N+](=O)[O-])c1

logD (pH 2.0): 3.79
SMILES: O=C(/C=C/c1ccco1)Nc1ccccc1NC(=O)/C=C/c1ccco1

logD (pH 7.0): 4.94
SMILES: O=C(/C=C/c1ccccc1)Nc1ccc(N2CCN(C(=O)c3cccs3)CC2)cc1

logD (pH 5.0): 5.96
SMILES: Cc1c(Nc2nc3ccccc3nc2Nc2cccc(Cl)c2)c(=O)n(-c2ccccc2)n1C

logD (pH 5.0): 4.3
SMILES: CSc1ccc(S(=O)(=O)N(CC(=O)NC[C@@H]2CCCO2)c2ccc(C)cc2)cc1

logD (pH 5.0): 5.31
SMILES: CCOC(=O)C1=C(C)NC(=S)N[C@@H]1c1ccc(OCc2ccc(Cl)cc2)c(OCC)c1

logD (pH 7.3): 4.25
SMILES: Cc1cc(C)n(-c2ccc(-n3cccc3/C=C(\C#N)S(C)(=O)=O)cc2)n1

logD (pH 10.0): 1.1
SMILES: CC(=O)/N=c1/sc2nc3ccccc3nc2n1N(C(C)=O)C(C)=O

logD (pH 10.0): 5.58
SMILES: C(=N\n1cnnc1)/c1ccc(-n2nc(-c3ccccc3)cc2-c2ccccc2)cc1

logD (pH 5.0): 5.01
SMILES: COc1ccc([C@@H]2[C@H](C(=O)N3CCCCCC3)c3ccccc3C(=O)N2Cc2ccc(F)cc2)cc1

logD (pH 5.0): 3.66
SMILES: COc1ccc([C@H]2[C@H](C(=O)Nc3ccc(F)cc3F)c3cc(OC)c(OC)cc3C(=O)N2C)cc1OC

logD (pH 2.0): 2.18
SMILES: Cc1cc(C)n2nc(S[C@@H](C)C(=O)NCC(=O)Nc3ccc(F)c(F)c3F)nc2n1

logD (pH 10.0): 5.81
SMILES: COc1ccccc1[C@H]1CC(=O)C2=C(C1)NC(C)=C(C(=O)OC1CCCC1)[C@H]2c1ccc(OC(C)=O)cc1

logD (pH 10.5): 5.23
SMILES: COCCOC(=O)C1=C(C)NC2=C(C(=O)CC(c3cccc(OC)c3)C2)C1c1coc2ccc(C)cc2c1=O (centres undefined)

logD (pH 6.5): 5.05
SMILES: N#CC1(C#N)[C@H](c2ccc(Br)s2)[C@@H](C(=O)c2ccccc2)N2c3ccccc3C=C[C@@H]21

logD (pH 8.0): 3.43
SMILES: COc1ccc([C@@H](C)n2c(C)c3c(C)nnc(C)c3c2C)cc1

logD (pH 5.0): 4.77
SMILES: C[C@@H](Oc1ccccc1)C(=O)Nc1ccc(OC(F)(F)F)cc1

logD (pH 5.0): 6.27
SMILES: CN1C(=CC(=O)COC(=O)C(c2ccccc2)c2ccccc2)C(C)(C)c2ccccc21

logD (pH 5.0): 5.83
SMILES: CCOc1cc([C@H]2[C@@H]3CN(C(=O)OC(C)(C)C)CC=C3C(C#N)=C(N)C2(C#N)C#N)ccc1OC(C)C
